Experimental data taken from patent publication US8765736B2, “Benzenesulfonamide compounds and the use thereof” (Purdue Pharma L.P., priority 2007, dated 2014).

Experiments:
[1] = target: T1, N-type calcium channel (NTCC) (Homo sapiens, UniProt Q00975); assay: FLIPR calcium mobilization assay for N-type calcium channel; assay type: cell-based; conditions: calcium mobilization in vitro assay; differentiated IMR32 cells, 5 μM nitrendipine, 90 mM KCl
T1 construct: endogenous in cells; host or cells: IMR32 cells (ATCC), differentiated with dibutyryl cAMP and bromodeoxyuridine
Experimental: Cell maintenance and differentiation. Unless noted otherwise, cell culture reagents were purchased from Mediatech of Herndon, Md. IMR32 cells (American Type Culture Collection, ATCC, Manassas, Va.) were routinely cultured in growth medium consisting of minimum essential medium containing 10% fetal bovine serum (FBS, Hyclone, Logan, Utah), 100 U/mL penicillin, 100 μg/mL streptomycin, 2 mM L-glutamine, 1 mM sodium pyruvate, and 1×MEM non-essential amino acids. 80-90% confluent flasks of cells were differentiated using the following differentiation medium: Growth medium plus 1 mM dibutyryl cyclic AMP (Sigma, St. Louis, Mo.), and 2.5 μM bromodeoxyuridine (Sigma). Cells were differentiated for 8 days by replacing differentiation medium every 2-3 days.
FLIPR Calcium Mobilization Assay for N-type Calcium Channel. One day prior to performing this assay, differentiated IMR32 cells were treated with 1× CellStripper, and seeded on poly-D-lysine-coated 96-well clear-bottom black plates (Becton Dickinson, Franklin Lakes, N.J.) at 200,000 cells/well. On the day of the assay, the cell plates were washed with IMR32 buffer (127 mM NaCl, 1 mM KCl, 2 mM MgCl2, 700 μM NaH2PO4, 5 mM CaCl2, 5 mM NaHCO3, 8 mM HEPES, 10 mM glucose, pH 7.4), then pre-stimulated with KCl and loaded as follows: 0.05 mL of IMR32 buffer, 0.05 mL of each compound tested diluted in IMR32 buffer containing 20 μM nitrendipine (Sigma), and 0.1 mL KCl dissolved in IMR32 buffer, plus Fluo-4 were added (3 μM final concentration, Molecular Probes, Eugene, Oreg.). Final test compound concentrations ranged from about 846 pM to about 17 μM, final nitrendipine concentration was 5 μM, and final KCl concentration was 90 mM. After 1 hour, the cells were washed twice with 0.05 mL of each compound tested in nitrendipine-containing IMR32 buffer (no KCl or Fluo-4), and then replaced with 0.1 mL of each compound tested in nitrendipine-containing IMR32 buffer. Plates were then transferred to a Fluorimetric Imaging Plate Reader (FLIPR^96, Molecular Devices, Inc., Sunnyvale, Calif.) for assay. The FLIPR measured basal Fluo-4 fluorescence for 315 seconds (i.e., 5 minutes and 15 seconds), then added 0.1 mL KCl agonist dissolved in IMR32 buffer and measured fluorescence for another 45 seconds. Final test compound concentrations on the cells after FLIPR read ranged from about 846 pM to about 17 μM, final nitrendipine concentration was 5 μM, and final KCl concentration was 90 mM. Data were collected over the entire time course and analyzed using Excel, Graph Pad Prism (version 3.02, Graph Pad, San Diego, Calif.), or an in-house non-linear regression analysis software.

[2] = target: T2, recombinant rat L-type calcium channel (LTCC) subunits (α1c, α2δ, and β1) (Rattus norvegicus, UniProt P22002); assay: FLIPR calcium mobilization assay for L-type calcium channel; assay type: cell-based; conditions: calcium mobilization in vitro assay; HEK293 cells stably expressing rat LTCC subunits, 90 mM KCl
T2 construct: expressed in transfected cells; α1c in pcDNA6.2DEST, β1 in pcDNA3.2DEST, α2δ in pcDNA3.1-Zeo
Experimental: Recombinant human embryonal kidney cells (HEK293, ATCC) stably transfected with either N-type calcium channel (NTCC) subunits (α1b (SEQ ID NOs: 13 to 15), α2δ (SEQ ID Nos: 16, 17), and β3 (SEQ ID NOs:18 to 20)) or L-type calcium channel (LTCC) subunits (α1c (SEQ ID NOs:21, 22), α2δ, and β1 (SEQ ID NOs:23 to 25)) were routinely cultured in growth medium consisting of Dulbecco's Modified Eagles Medium containing 10% FBS, 100 U/mL penicillin, 100 μg/mL streptomycin, 4 mM L-glutamine, 500 μg/mL geneticin (G418), 20 μg/mL Blasticidin S (InVivogen, San Diego, Calif.) and 500 μg/mL zeocin (InVivogen).
FLIPR Calcium Mobilization Assay for L-type Calcium Channel. One day prior to performing this assay, HEK293 cells stably expressing recombinant rat L-type calcium channel (LTCC) subunits (α1c, α2δ, and β1) were trypsinized, then seeded on poly-D-lysine-coated 96-well clear-bottom black plates (Becton Dickinson, Franklin Lakes, N.J.) at 75,000 cells/well. On the day of the assay, the plates were washed with LTCC wash buffer (127 mM NaCl, 2 mM MgCl2, 700 μM NaH2PO4, 5 mM CaCl2, 5 mM NaHCO3, 8 mM HEPES, 10 mM glucose, pH 7.4), then loaded with 0.1 mL of LTCC wash buffer containing Fluo-4 (3 μM final concentration, Molecular Probes, Eugene, Oreg.). After 1 hour, the cells were washed with 0.1 mL LTCC wash buffer and resuspended in 0.05 mL LTCC assay buffer (same composition as LTCC wash buffer). Plates were then transferred to a FLIPR^96 for assay. The FLIPR measured basal Fluo-4 fluorescence for 15 seconds, then added 0.05 mL of each compound tested diluted in LTCC assay buffer at final concentrations ranging from about 846 pM to about […]. Fluo-4 fluorescence was then measured for 5 minutes. 0.1 mL KCl agonist dissolved in LTCC assay buffer was then added to the cells to produce a final concentration of 90 mM KCl, and fluorescence was measured for another 45 seconds. Data were collected over the entire time course and analyzed using Excel, Graph Pad Prism, or an in-house regression analysis software.
L-type Recombinant Cell Line Development. L-type calcium channel expressing HEK-293 cells were created in two stages. Stage 1 was created as follows. The rat α1c, and β1 cDNA expression constructs (2.5 μg each) were co-transfected into human embryonic kidney (HEK-293) cells by Lipofectamine Plus reagent (Invitrogen), as per manufacturer's instructions. 24 hours later, cells were split in limiting dilution into multiple 96-well plates in selection media containing 20 μg/mL blasticidin and 500 μg/mL geneticin, and incubated for 3 weeks at 37° C., 5% CO2, 95% humidity. Plates containing ≦1 clone per well were cultured until wells positive for single clones were confluent. Individual clones were then arrayed into columns of a destination 96-well plate, and partly split into 6-well plates for culture maintenance. Array plates were washed once with LTCC wash (or assay) buffer and cells loaded for 1 hour with 0.1 mL of LTCC buffer containing Fluo-4 (3 μM final concentration, Molecular Probes). Then they were washed twice with 0.1 mL of LTCC buffer, and replaced with 0.1 mL LTCC buffer. Plates were then transferred to a FLIPR^96 for assay. The FLIPR measured basal Fluo-4 fluorescence for 315 seconds, then added 0.1 mL KCl agonist dissolved in LTCC buffer and measured fluorescence for another 45 seconds. Final KCl concentration was 90 mM. Data were collected over the entire time course and analyzed using Excel, Graph Pad Prism, or Activity Base software. The clone with the greatest signal-to-noise ratio, best stability of response with passage number, and best adhesion to PDL precoated plates (Becton Dickinson) was expanded, characterized and used for stage 2 cell line development.
Stage 2 of L-type cell line development was carried out as follows. The rat α2δ cDNA expression construct (5 μg each) was transfected into the stage 1 L-type clonal cell line by Lipofectamine Plus reagent (Invitrogen), as per manufacturer's instructions. […]

T1 sequence (Q00975 whole entry): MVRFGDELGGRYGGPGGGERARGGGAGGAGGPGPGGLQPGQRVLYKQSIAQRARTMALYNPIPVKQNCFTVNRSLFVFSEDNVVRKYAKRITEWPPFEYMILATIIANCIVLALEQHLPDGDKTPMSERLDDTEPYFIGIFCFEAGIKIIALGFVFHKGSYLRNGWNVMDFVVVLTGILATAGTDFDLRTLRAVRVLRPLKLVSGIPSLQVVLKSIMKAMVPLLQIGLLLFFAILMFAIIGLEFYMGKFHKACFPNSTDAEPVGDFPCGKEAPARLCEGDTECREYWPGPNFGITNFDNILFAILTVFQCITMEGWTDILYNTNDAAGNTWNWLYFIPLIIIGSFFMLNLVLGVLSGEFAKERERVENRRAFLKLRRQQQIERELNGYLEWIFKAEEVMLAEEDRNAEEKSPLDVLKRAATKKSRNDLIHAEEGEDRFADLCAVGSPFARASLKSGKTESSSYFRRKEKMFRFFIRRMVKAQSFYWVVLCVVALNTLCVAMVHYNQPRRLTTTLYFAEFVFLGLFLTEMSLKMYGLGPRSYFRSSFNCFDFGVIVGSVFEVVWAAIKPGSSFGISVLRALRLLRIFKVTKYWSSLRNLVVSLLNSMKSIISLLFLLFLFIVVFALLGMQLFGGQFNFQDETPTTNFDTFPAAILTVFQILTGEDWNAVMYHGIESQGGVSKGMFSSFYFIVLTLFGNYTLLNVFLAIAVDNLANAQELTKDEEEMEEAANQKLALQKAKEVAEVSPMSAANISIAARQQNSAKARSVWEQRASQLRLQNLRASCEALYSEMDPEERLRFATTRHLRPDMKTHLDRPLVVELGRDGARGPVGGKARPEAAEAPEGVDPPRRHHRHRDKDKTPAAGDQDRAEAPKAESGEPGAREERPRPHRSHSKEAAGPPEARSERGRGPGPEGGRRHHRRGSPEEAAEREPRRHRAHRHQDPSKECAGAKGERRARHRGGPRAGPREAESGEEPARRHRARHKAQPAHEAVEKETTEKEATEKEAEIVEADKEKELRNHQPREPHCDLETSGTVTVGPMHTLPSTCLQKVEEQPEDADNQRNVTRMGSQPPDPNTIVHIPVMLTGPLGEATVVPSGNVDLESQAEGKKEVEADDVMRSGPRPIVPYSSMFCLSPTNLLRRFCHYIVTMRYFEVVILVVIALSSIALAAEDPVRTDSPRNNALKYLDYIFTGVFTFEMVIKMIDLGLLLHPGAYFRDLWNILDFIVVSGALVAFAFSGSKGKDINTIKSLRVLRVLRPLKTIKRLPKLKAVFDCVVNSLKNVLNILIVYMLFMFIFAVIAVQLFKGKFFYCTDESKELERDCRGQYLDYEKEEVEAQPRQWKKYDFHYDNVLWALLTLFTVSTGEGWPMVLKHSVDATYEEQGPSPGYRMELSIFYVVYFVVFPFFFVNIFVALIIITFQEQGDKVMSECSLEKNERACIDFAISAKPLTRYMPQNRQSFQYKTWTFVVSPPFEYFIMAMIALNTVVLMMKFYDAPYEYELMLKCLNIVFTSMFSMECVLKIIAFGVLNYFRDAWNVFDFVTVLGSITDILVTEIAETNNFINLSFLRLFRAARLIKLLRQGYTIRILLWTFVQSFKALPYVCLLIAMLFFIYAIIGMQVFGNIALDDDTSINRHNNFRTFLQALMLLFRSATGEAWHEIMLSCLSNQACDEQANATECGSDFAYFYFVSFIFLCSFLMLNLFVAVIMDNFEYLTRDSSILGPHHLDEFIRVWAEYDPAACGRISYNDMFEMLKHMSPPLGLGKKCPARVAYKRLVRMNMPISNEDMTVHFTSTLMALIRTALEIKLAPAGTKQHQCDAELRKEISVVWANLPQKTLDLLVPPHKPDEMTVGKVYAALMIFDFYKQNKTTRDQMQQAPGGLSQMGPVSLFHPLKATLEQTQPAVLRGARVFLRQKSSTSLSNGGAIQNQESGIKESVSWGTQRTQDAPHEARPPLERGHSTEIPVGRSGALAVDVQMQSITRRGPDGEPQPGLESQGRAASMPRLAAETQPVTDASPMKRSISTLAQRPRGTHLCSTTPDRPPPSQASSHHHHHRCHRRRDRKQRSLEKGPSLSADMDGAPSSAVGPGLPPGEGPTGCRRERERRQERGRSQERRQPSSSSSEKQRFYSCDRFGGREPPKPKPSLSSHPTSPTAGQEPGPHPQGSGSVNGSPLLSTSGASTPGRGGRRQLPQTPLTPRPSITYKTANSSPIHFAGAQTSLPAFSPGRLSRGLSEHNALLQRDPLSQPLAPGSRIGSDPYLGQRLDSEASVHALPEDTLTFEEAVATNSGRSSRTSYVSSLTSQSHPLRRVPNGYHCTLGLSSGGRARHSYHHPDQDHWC
T1 sequence (P54289 25-956 partner limits assumed): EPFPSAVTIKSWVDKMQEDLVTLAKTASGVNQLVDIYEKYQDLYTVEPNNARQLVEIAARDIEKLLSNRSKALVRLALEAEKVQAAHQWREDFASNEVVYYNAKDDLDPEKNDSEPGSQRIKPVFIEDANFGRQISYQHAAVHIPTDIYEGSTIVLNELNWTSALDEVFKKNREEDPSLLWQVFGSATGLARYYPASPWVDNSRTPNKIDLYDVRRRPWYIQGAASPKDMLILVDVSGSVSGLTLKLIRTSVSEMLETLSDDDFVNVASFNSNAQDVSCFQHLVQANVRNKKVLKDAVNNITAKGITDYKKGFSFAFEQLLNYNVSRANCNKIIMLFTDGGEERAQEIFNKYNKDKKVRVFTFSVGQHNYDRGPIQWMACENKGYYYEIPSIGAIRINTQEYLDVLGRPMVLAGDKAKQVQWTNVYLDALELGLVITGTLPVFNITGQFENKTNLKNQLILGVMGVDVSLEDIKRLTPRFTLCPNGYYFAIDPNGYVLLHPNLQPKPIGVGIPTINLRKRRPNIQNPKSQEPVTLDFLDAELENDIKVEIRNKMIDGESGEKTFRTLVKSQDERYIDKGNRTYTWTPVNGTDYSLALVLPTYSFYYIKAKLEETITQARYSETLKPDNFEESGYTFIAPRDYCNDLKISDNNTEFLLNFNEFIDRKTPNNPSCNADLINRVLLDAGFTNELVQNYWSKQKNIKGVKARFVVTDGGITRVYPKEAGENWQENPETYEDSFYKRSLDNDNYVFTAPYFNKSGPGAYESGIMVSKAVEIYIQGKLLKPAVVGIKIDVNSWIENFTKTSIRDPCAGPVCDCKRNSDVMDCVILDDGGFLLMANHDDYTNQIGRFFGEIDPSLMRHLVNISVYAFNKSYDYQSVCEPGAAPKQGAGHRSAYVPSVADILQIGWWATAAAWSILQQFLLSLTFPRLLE
T1 sequence (P54289 957-1103 partner limits assumed): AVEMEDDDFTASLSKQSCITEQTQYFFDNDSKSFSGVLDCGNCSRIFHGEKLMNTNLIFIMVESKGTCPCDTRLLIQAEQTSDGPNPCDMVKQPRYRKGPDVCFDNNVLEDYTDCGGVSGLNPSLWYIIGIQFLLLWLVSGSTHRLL
T1 sequence (P54284 whole entry partner): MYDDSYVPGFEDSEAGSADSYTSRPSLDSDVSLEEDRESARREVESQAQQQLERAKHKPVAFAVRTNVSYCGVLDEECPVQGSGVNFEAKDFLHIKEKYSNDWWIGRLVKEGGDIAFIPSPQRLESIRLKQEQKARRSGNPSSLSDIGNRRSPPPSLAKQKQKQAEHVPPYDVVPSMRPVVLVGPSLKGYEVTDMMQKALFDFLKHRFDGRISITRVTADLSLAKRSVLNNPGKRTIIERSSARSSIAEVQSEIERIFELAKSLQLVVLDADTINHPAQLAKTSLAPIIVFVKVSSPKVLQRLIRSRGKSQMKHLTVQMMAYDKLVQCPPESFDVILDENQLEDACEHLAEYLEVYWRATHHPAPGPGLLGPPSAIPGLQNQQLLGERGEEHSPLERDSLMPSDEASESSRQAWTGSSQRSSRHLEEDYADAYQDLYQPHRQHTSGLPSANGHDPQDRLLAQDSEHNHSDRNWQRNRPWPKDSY

| SMILES | IC50 [1] [nM] | IC50 [2] [nM] |
| --- | --- | --- |
| CCOC(=O)C(C)N1CCC(N(C(C)C)S(=O)(=O)c2cccc(C(F)(F)F)c2)CC1 (centres unmarked) [Compound 8a, 2-[4-[Isopropyl-(3-trifluoromethyl-benzenesulfonyl)amino]piperidin-1-yl}propionic acid ethyl ester] | 1010 | – |
| CCOC(=O)C(C)(C)N1CCC(N(C(C)C)S(=O)(=O)c2cccc(C(F)(F)F)c2)CC1 [Compound 8b, 2-{4-[Isopropyl-(3-trifluoromethyl-benzenesulfonyl)amino]piperidin-1-yl}-2-methylpropionic acid ethyl ester] | 620 | > 20000 |
| O=C(CN1CCC(N(C2CC2)S(=O)(=O)c2cccc(C(F)(F)F)c2)CC1)Oc1ccc(Cl)cc1 [Compound 8c, {-4-[Cyclopropyl-(3-trifluoromethyl-benzenesulfonyl)amino]piperidin-1-yl}acetic acid 4-chlorophenyl ester] | 600 | > 20000 |
| COC(=O)c1ccccc1N1CCC(N(C2CC2)S(=O)(=O)c2cccc(C(F)(F)F)c2)CC1 [Compound 10a, 2-{4-[Cyclopropyl-(3-trifluoromethyl-benzenesulfonyl)amino]piperidin-1-yl}benzoic acid methyl ester] | 900 | > 20000 |
| CCOC(=O)c1cccnc1N1CCC(N(C2CC2)S(=O)(=O)c2cccc(C(F)(F)F)c2)CC1 [Compound 10b, 4-[Cyclopropyl-(3-trifluoromethyl-benzenesulfonyl)amino]-3,4,5,6-tetrahydro-2H-[1,2′]-bipyridinyl-3′-carboxylic acid ethyl ester] | 1440 | – |
| CCOC(=O)c1cc(F)cc(N2CCC(N(C3CC3)S(=O)(=O)c3cccc(C(F)(F)F)c3)CC2)c1 [Compound 10c, 3-{-4-[Cyclopropyl-(3-trifluoromethyl-benzenesulfonyl)amino]piperidin-1-yl}-5-fluorobenzoic acid ethyl ester] | 1070 | – |
| CCOC(=O)c1ccc(N2CCC(N(C3CC3)S(=O)(=O)c3cccc(C(F)(F)F)c3)CC2)cc1 [Compound 10d, 4-{-4-[Cyclopropyl-(3-trifluoromethyl-benzenesulfonyl)amino]piperidin-1-yl}benzoic acid ethyl ester] | 1310 | – |
| O=S(=O)(c1cccc(C(F)(F)F)c1)N(C1CC1)C1CCN(c2cc(C(F)(F)F)cc(C(F)(F)F)c2)CC1 [Compound 10e, N-[1-(3,5-Bis-(trifluoromethyl)phenyl)piperidin-1-yl]-N-cyclopropyl-3-trifluoromethylbenzenesulfonamide] | 6270 | – |
| O=C(NCCN1CCC(N(C2CC2)S(=O)(=O)c2cccc(C(F)(F)F)c2)CC1)c1ccc(F)cc1 [Compound 14a, N-(2-{-4-[Cyclopropyl-(3-trifluoromethylbenzenesulfonyl)amino]piperidin-1-yl}ethyl)-4-fluorobenzamide] | 380 | 6740 |
| O=C(NCCN1CCC(N(C2CC2)S(=O)(=O)c2cccc(C(F)(F)F)c2)CC1)c1cc(C(F)(F)F)cc(C(F)(F)F)c1 [Compound 14b, N-(2-{4-[Cyclopropyl-(3-trifluoromethylbenzenesulfonyl)amino]piperidin-1-yl}ethyl)-3,5-bis(trifluoromethyl)phenylbenzamide] | 1130 | – |
| CC(C)N(C1CCN(CCC(=O)N2CCCCC2)CC1)S(=O)(=O)c1cccc(C(F)(F)F)c1 [Compound 18, N-Isopropyl-N-[1-(3-oxo-3-piperidin-1-yl-propyl)-piperidin-4-yl]-3-trifluoromethyl-benzenesulfonamide] | 770 | > 20000 |
| CC(C)(C(=O)Nc1ccc(F)cc1Cl)N1CCC(N(C2CC2)S(=O)(=O)c2cccc(C(F)(F)F)c2)CC1 [Compound 21a, N-(2-Chloro-4-fluorophenyl)-2-{-4-[cyclopropyl-(3-trifluoromethyl-benzenesulfonyl)-amino]-piperidin-1-yl}-isobutyramide] | 1600 | – |
| CC(C)(C(=O)Nc1ccc(F)cc1)N1CCC(N(C2CC2)S(=O)(=O)c2cccc(C(F)(F)F)c2)CC1 [Compound 21b, 2-{-4-[Cyclopropyl-(3-trifluoromethyl-benzenesulfonyl)-amino]-piperidin-1-yl}-N-(4-fluoro-phenyl)-isobutyramide] | 600 | > 20000 |
| CC(CC(=O)NC(C)(C)C)N1CCC(N(C(C)C)S(=O)(=O)c2cccc(C(F)(F)F)c2)CC1 (centres unmarked) [Compound 25, 3-{4-[Isopropyl-(3-trifluoromethyl-benzenesulfonyl)amino]piperidin-1-yl}-N-tert-butyl-butyramide] | 240 | 8450 |
| CC(C)N(C1CCN(CC(=O)N2CCCC2)CC1)S(=O)(=O)c1cccc(C(F)(F)F)c1 [Compound 31b, N-Isopropyl-N-[1-(2-oxo-2-pyrrolidin-1-yl-ethyl)-piperidin-4-yl]-3-trifluoromethyl-benzenesulfonamide] | 1610 | – |
| CC(C)N(C1CCN(CC(=O)NC2CCOC2)CC1)S(=O)(=O)c1cccc(C(F)(F)F)c1 (centres unmarked) [Compound 31e, 2-{4-[Isopropyl-(3-trifluoromethyl-benzenesulfonyl)-amino]-piperidin-1-yl}-N-(tetrahydrofuran-3-yl)-acetamide] | 3200 | – |
